Results reported in patent US12186332B2, “Methods for overcoming WNT/beta-catenin anti-cancer resistance in leukemia stem cells” (STOWERS INSTITUTE FOR MEDICAL RESEARCH, priority 2019, dated 2025).

Tests used:
[1] = tested on: Akt-enhanced β-catenin activity (TOP-Luc); test: HTS TOPFlash/FOPFlash luciferase reporter dose-response; format: cell-based
[2] = tested on: leukemia (T-ALL) in Pten:β-cat^Act mice; test: Long-term survival of treated leukemic mice; format: in vivo, mouse
Description: Treatment schematic and Kaplan-Meier curves of leukemic mice treated as indicated. Red arrow indicates day 0 in survival curve.
Dashed line indicates day of final [Low]nanoDXR treatment.
Chemotherapy for the animal model consisted of Nelarabine (Selleck) and Dexamethasone (BioVision) administered daily for 5 days consecutively. 43.4 mg/ml Nelarabine was administered intravenously via the tail vain according to the formula: Body Weight (g)×5=volume to inject (μl), which yielded 217 mg/kg. 2.5 mg/ml Dexamethasone was injected intraperitoneally according to the formula: Body Weight (g)×4=volume to inject (μl), yielding 10 mg/kg. […] [Low] NanoDXR treatment used doxorubicin nanoparticles (Tran et al. 2014) administered as a single IV injection once per week on day 1 relative to above treatments using 0.8 mg/kg. Maintenance [Low] NanoDXR consisted of once per week injections of 0.4 mg/kg. Groups combining Nelarabine with Doxorubicin used a single injection containing both drugs. All drugs were solubilized in 45% (2-Hydroxypropyl)-p-cyclodextrin (HBC) or 0.9% NaCl.

[3] = tested on: β-catenin binding of the Cd24a gene locus; test: ChIP-qPCR in Ctnnb1-3xFlag mouse ES cells; format: cell-based; conditions: 4 hours
Description: The Ctnnb1-3×Flag mouse ES cell line was provided by Andrew McMahon (University of Southern California) and routinely passaged and maintained on irradiated MEF feeder in conventional ES cell medium supplemented with […] and […] Hygromycin B. Cells were adapted and expanded to serum free 2i culture for experiments. For serum-free 2i culture, ES cells were cultured without serum in the N2B27 medium: neurobasal medium(Invitrogen 21103-049), DMEM/F12 (Invitrogen 10565-018), 0.5×N2 (Invitrogen 17502-048), 0.5×B27 (Invitrogen 17504044), 1×b-mercaptoethanol(Millipore ES-007-E), 2 mM Lglutamine(Invitrogen 25030081), […] non-essential amino acid(NEAA)(SCT 07600), 0.033% BSA(Invitrogen 15260037), […] CHIRON(Tocris 4423), […] PD03 (SCT72184).
A total of 2×10^7 ES cells were used per ChIP assay. Cells were washed with 1×PBS and crosslinked with 1% paraformaldehyde for 10 min at RT and quenched with 1 ml 2.5M glycine. Cells were washed with cold PBS three times and resuspended in […] lysis buffer (15 mM HEPES at pH 7.5, 140 mM NaCl, 1 mM EDTA, 0.5 mM EGTA, 1% Triton X100, 0.1% sodium deoxycholate, 1% SDS, 0.5% N-lauroylsarcosine). […] ChIP-qPCR was performed with Fast SYBR™ Green Master Mix (Thermo Fisher Scientific 4385612) and analyzed with the Student's t-test.

In the case of COc1cccc2c1C(=O)c1c(O)c3c(c(O)c1C2=O)C[C@@](O)(C(=O)CO)C[C@@H]3O[C@H]1C[C@H](N)[C@H](O)[C@H](C)O1 [DXR, doxorubicin], the “concentration at which Akt-enhanced β-catenin activity (TOP-Luc) is specifically inhibited (compare to FOP-Luc control)” value ([1]; HEK-293 TOPFlash vs FOPFlash Akt^Act βcat^Act cells) is reported as “lower than 1 μM”, the “specificity (FOP-Luc) at higher concentrations” value ([1]; higher concentrations (above 1 μM)) is reported as “reduced specificity” and the “survival compared to vehicle alone” value ([2]; clinical-dose DXR combined with chemotherapy) is reported as “significantly reduced survival”. The improvement of survival ([2]; mouse, in vivo) was “did not”, the “β-catenin binding of the Cd24 promoter region” value ([3]; high-dose DXR (3 μM)) was “partially reversed” and the “β-catenin binding of the Cd24 promoter region” value ([3]; low-dose DXR (30 nM)) was “essentially abolished”.
